Laboratory results published in patent publication US7943749B2, “Antimicrobial 2-deoxystreptamine compounds” (Isis Pharmaceuticals, Inc., priority 2004, dated 2011).

Key:
Conditions in all cases: 24 h
[1] = test system: E. Coli; experiment: MIC, E. Coli; format: cell-based;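 also: minimum inhibitory concentration determined in duplicate in 96-well plates, compounds given in 4% aqueous DMSO, with ampicillin and tetracycline as positive controls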
[2] = test system: S. Aureus; experiment: MIC, S. Aureus; format: cell-based
[3] = test system: S. aureus ATCC(13709); experiment: MIC, S. aureus ATCC 13709; format: cell-based
[4] = test system: gentamicin sensitive Acinetobacter baumannii #2 from Walter Reed; experiment: MIC, A. baumannii WReed 2; format: cell-based
[5] = test system: P. aurginosa ATCC(25416); experiment: MIC, P. aurginosa ATCC 25416; format: cell-based
[6] = test system: P. vulgaris ATCC(8427)
Method: The MIC assays are carried out in 150 μL volume in duplicate in 96-well clear flat-bottom plates. The bacterial suspension from an overnight culture growth in appropriate medium is added to a solution of test compound in 4% DMSO in water. Final bacterial inoculum is approximately 10^5-10^6 CFU/well. […] Both ampicillin and tetracycline are used as antibiotic-positive controls in each screening assay for S. pyogenes, E. coli imp-, E. coli, S. aureus, E. faecalis, K. pneumoniae and P. vulgaris. Ciprofloxacin is used as an antibiotic positive control in each screening assay for P. aeruginosa.
The following compounds were prepared using methods illustrated in the previous examples. The compounds were also examined in standard bacterial assays against E. Coli, S. Aureus, P. aurginosa, K. pneumoniae, P. vulgaris, and A. baumannii to determine activities. Each of the bacterial cultures that are available from ATCC (www.atcc.org) is identified by its ATCC number. A. baumannii is gentamicin sensitive Acinetobacter baumannii #2 from Walter Reed.

[7] = test system: K. pneumoniae ATCC (10031); experiment: MIC, K. pneumoniae ATCC 10031; format: cell-based
[8] = test system: P. aurginosa ATCC(29248); experiment: MIC, P. aurginosa ATCC 29248; format: cell-based
[9] = test system: E. coli ATCC (25922); experiment: MIC, E. coli ATCC 25922; format: cell-based

Row | SMILES | MIC E. Coli. [1] [µM] | MIC S. Aureus [2] [µM] | other results
1 | NCC1OC(OC2C(CO)OC(OC3C(O)C(N)CC(N)C3OC3OC(CO)C(O)C(O)C3N)C2OCCNCc2ccccc2)C(N)C(O)C1O (stereo not shown) [IBIS00560974] | 3 to 6 | 3 to 5 | 
2 | NCC1OC(OC2C(CO)OC(OC3C(O)C(N)CC(N)C3OC3OC(CO)C(O)C(O)C3N)C2OCCNCc2ccc(N)nc2)C(N)C(O)C1O (stereo not shown) [IBIS00560975] | 3 to 6 | 0.3 to 0.6 | 
3 | NCC1OC(OC2C(CO)OC(OC3C(O)C(N)CC(N)C3OC3OC(CO)C(O)C(O)C3N)C2OCCNc2ccccn2)C(N)C(O)C1O (stereo not shown) [IBIS00561109] | 12 to 25 | 1 to 2 | 
4 | NCC1OC(OC2C(CO)OC(OC3C(O)C(N)CC(N)C3OC3OC(CO)C(O)C(O)C3N)C2OCCNCCCc2ccccc2)C(N)C(O)C1O (stereo not shown) [IBIS00561144] | 3 to 5 | 0.6 to 1.2 | 
5 | NCC1OC(OC2C(CO)OC(OC3C(O)C(N)CC(N)C3OC3OC(CO)C(O)C(O)C3N)C2OCCNCCCCc2ccccc2)C(N)C(O)C1O (stereo not shown) [IBIS00561145] | 3 to 5 | 0.6 to 1.2 | 
6 | COc1cc(CCNCCOC2C(OC3C(O)C(N)CC(N)C3OC3OC(CO)C(O)C(O)C3N)OC(CO)C2OC2OC(CN)C(O)C(O)C2N)cc(OC)c1 (stereo not shown) [IBIS00561192] | 10 to 20 | 5 to 10 | 
7 | NCC1OC(OC2C(CO)OC(OC3C(O)C(N)CC(N)C3OC3OC(CO)C(O)C(O)C3N)C2OCCNCCc2ccc(-c3ccccc3)cc2)C(N)C(O)C1O (stereo not shown) [IBIS00561193] | 20 to 40 | 5 to 10 | 
8 | NCC1OC(OC2C(CO)OC(OC3C(O)C(N)CC(N)C3OC3OC(CO)C(O)C(O)C3N)C2OCCNC23CC4CC(CC(O)(C4)C2)C3)C(N)C(O)C1O (stereo not shown) [IBIS00561195] | 20 to 40 | 1 to 3 | 
9 | NCC1OC(OC2C(CO)OC(OC3C(O)C(N)CC(N)C3OC3OC(CO)C(O)C(O)C3N)C2OCCNC2CCCc3ccccc32)C(N)C(O)C1O (stereo not shown) [IBIS00561950] | >10 | 1.25 to 2.5 | 
10 | NCC1OC(OC2C(CO)OC(OC3C(O)C(N)CC(N)C3OC3OC(CO)C(O)C(O)C3N)C2OCCNCCC2CC3CCC2C3)C(N)C(O)C1O (stereo not shown) [IBIS00561951] | >10 | 5.0 to 10.0 | 
11 | CC(C)CCCC(C)C1CCC2C3CCC4CC(NCCOC5C(OC6C(O)C(N)CC(N)C6OC6OC(CO)C(O)C(O)C6N)OC(CO)C5OC5OC(CN)C(O)C(O)C5N)CCC4(C)C3CCC12C (stereo not shown) [IBIS00561952] | >10 | 2.5 to 5.0 | 
12 | NCC1OC(OC2C(CO)OC(OC3C(O)C(N)CC(N)C3OC3OC(CO)C(O)C(O)C3N)C2OCCNCCc2cc(C(F)(F)F)cc(C(F)(F)F)c2)C(N)C(O)C1O (stereo not shown) [IBIS00561954] | >10 | 2.5 to 5.0 | 
13 | NCC1OC(OC2C(CO)OC(OC3C(O)C(N)CC(N)C3OC3OC(CO)C(O)C(O)C3N)C2OCCN(CCCc2ccccc2)CCc2ccccc2)C(N)C(O)C1O (stereo not shown) [IBIS00561969] |  |  | MIC S. aureus ATCC(13709) [3]: 0.6 to 1.2 µM; MIC A. baumannii WReed 2 [4]: 10 to 20 µM; MIC P. aurginosa ATCC(25416) [5]: 10 to 20 µM; MIC P. vulgaris ATCC(8427) [6]: 10 to 20 µM; MIC K. pneumoniae ATCC (10031) [7]: 2.5 to 5.0 µM; MIC P. aurginosa ATCC(29248) [8]: >40 µM; MIC E. coli ATCC (25922) [9]: 10 to 20 µM
